# Numbering of substitutions follows the chain as printed. Values joined by “and” are separate entries in the source; they are usually repeats but may differ in a detail not shown here. Equal entries are not always repeated.
# Columns and labels:
# Type in all cases: cell-based
# [1] = target: T1, rASIC1a F98A (Rattus norvegicus, UniProt P55926, F98A); assay: Inhibition of pH 6.0-induced current of mutant channel F98A
# T1 construct: expressed in transfected cells; host or cells: CHO cells, transient transfection (GFP cDNA co-transfected separately)
# T1 sequence (P55926 1-526 F98A): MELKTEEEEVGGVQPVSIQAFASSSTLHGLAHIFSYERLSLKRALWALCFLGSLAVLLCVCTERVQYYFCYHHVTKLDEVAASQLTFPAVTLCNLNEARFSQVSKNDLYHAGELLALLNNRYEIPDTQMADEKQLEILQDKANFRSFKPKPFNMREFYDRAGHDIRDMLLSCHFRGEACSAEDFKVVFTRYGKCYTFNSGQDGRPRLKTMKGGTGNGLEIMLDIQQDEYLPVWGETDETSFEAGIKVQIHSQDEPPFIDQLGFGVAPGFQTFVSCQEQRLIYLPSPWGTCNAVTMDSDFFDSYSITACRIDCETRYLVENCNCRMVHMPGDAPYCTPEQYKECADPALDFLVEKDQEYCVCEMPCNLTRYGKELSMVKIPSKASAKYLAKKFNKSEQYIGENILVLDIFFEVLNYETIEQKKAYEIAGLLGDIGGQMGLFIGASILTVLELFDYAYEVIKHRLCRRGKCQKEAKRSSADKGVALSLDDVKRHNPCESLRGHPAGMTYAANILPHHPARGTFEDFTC
# Protocol: (§1) Chinese Hamster Ovary (CHO) cells stably expressing rat ASIC1a were cultured in Ham’s F12, supplemented with 10% FBS, 1% penicillin–streptomycin and 500 µg/mL G418 and incubated at 37 °C with 5% CO2. Transient transfections of rASIC1a and cASIC1 wild-type or mutant channels in CHO cells were performed with Lipofectamine 3000 (Thermo Fisher Scientific) according to the manufacturer’s recommendations. The green fluorescent protein (GFP) cDNA (at 1/10 the amount of channel cDNA) was co-transfected with channel cDNA to aid the identification of transfected cells under the microscope in patch clamp experiments. All cDNAs were sequence verified.
# Cells were freshly dissociated with CellStripper (Corning) and dispersed in a chamber on the stage of an inverted microscope. […]
# All recordings were performed at room temperature using an Axopatch 200B amplifier and pClamp 11 software (Molecular Devices). Currents were measured by whole-cell patch clamp, digitized at 10 kHz and lowpass filtered at 2 kHz. […] Responses were elicited by rapid perfusion of acidic solutions using the SF-77B Fast-Step Perfusion device (Warner Instruments) for 40 ms once every 30 s (unless indicated otherwise) and recorded till steady state was reached. […]
# [2] = target: T2, rat ASIC1a (Rattus norvegicus, UniProt P55926); assay: pH dependence of channel activation (whole-cell patch clamp); settings: holding pH 8.2
# T2 construct: expressed in transfected cells
# T2 sequence (P55926 1-526): T1 sequence (P55926 1-526 F98A) with A98F
# Protocol: as §1
# (§2) Cells were freshly dissociated with CellStripper (Corning) and dispersed in a chamber on the stage of an inverted microscope. Upon formation of the whole-cell conformation, the cell was lifted from the bottom of the chamber and placed at the tip of a tubing perfusing an extracellular solution containing (in mM): 149 NaCl, 2 CaCl2, 4 KCl, 1 MgCl2, 5 glucose, 10 HEPES, pH 7.4, 310 mOsm/L. Extracellular solutions at more basic or acidic pHs were made by titrating the above pH 7.4 solution with NaOH or HCl (5 mM MES was added to solutions at pH 6.0 and lower). Pipette electrodes were filled with an intracellular solution containing (in mM): 135 KCl, 4 MgATP, 0.3 Na2GTP, 10 EGTA, and 20 HEPES, pH 7.2, 290 mOsm/L.
# (§3) All recordings were performed at room temperature using an Axopatch 200B amplifier and pClamp 11 software (Molecular Devices). Currents were measured by whole-cell patch clamp, digitized at 10 kHz and lowpass filtered at 2 kHz. Series resistance was 75% compensated. Responses were elicited by rapid perfusion of acidic solutions using the SF-77B Fast-Step Perfusion device (Warner Instruments) for 40 ms once every 30 s (unless indicated otherwise) and recorded till steady state was reached. The holding potential was 0 mV unless indicated otherwise.
# (§4) Baseline values (i.e., current amplitudes at the conditioning pH) were subtracted to obtain responses evoked by the test pH. Responses were normalized for each cell before averaging (see figure legends for more detail on normalization for each type of experiment). Concentration–response data were fitted to a logistic function of the form: R = (A1–A2)/(1 + (C/C0)^h)+A2, where R is the normalized response, C is either pH or compound concentration, C0 is the pH/concentration at which half-maximal response occurs (pH50 or IC50), h is the Hill coefficient, and A1 and A2 are constants. Kinetic parameters were obtained by fitting the data with either a single or double exponential function. Fitted data are shown as solid, dashed, or dotted curves.
# [3] = target: T2, rat ASIC1a; assay: Kinetics of closed-state (pH 7.1-induced) desensitization and recovery; settings: 100 nM
# Protocol: as §1, §2, §3, §4
# [4] = target: T2, rat ASIC1a; assay: pH dependence of steady-state desensitization (whole-cell patch clamp)
# Protocol: as §1, §2, §3, §4
smiles,measurement,setting,value
COc1ccc(Oc2ccc(-c3nc4cc(C(=N)N)ccc4[nH]3)cc2)cc1OC [JNJ-799760],IC50,[1],726 ± 356 nM
Cc1cc(N2CC(Oc3cc(F)c4c(N)n[nH]c4c3)C2)c(F)cn1 [JNJ-67869386],max %response of channel activation,[2]; 10 nM,95.3 ± 1.6%
same,pH50 of channel activation,[2]; 10 nM,6.02 ± 0.03
same,max %response of channel activation,[2]; 30 nM,88.1 ± 1.0%
same,pH50 of channel activation,[2]; 30 nM,5.87 ± 0.02
same,max %response of channel activation,[2]; 100 nM,82.6 ± 0.3%
same,pH50 of channel activation,[2]; 100 nM,5.73 ± 0.00
same,max %response of channel activation,[2]; 300 nM,84.1 ± 0.5%
same,pH50 of channel activation,[2]; 300 nM,5.70 ± 0.01
same,max %response of channel activation,[2]; 1000 nM,87.4 ± 0.5%
same,pH50 of channel activation,[2]; 1000 nM,5.68 ± 0.01
same,max %response of channel activation,[2]; 3000 nM,82.9 ± 0.5%
same,pH50 of channel activation,[2]; 3000 nM,5.70 ± 0.01
same,IC50,[1],626 ± 11 nM
same,"current remaining during pH 7.1-induced desensitization, normalized to pre-pH 7.1 pH 6.0 peak, mean",[3]; 0.8 s in pH 7.1 (source data Fig. 3c),75.8
same,"current remaining during pH 7.1-induced desensitization, normalized to pre-pH 7.1 pH 6.0 peak, mean",[3]; 1.6 s in pH 7.1,70.1
same,"current remaining during pH 7.1-induced desensitization, normalized to pre-pH 7.1 pH 6.0 peak, mean",[3]; 3.2 s in pH 7.1,61.0
same,"current remaining during pH 7.1-induced desensitization, normalized to pre-pH 7.1 pH 6.0 peak, mean",[3]; 6.4 s in pH 7.1,50.5
same,"current remaining during pH 7.1-induced desensitization, normalized to pre-pH 7.1 pH 6.0 peak, mean",[3]; 12.8 s in pH 7.1,36.9
same,"current remaining during pH 7.1-induced desensitization, normalized to pre-pH 7.1 pH 6.0 peak, mean",[3]; 25.6 s in pH 7.1,20.0
same,"current remaining during pH 7.1-induced desensitization, normalized to pre-pH 7.1 pH 6.0 peak, mean",[3]; 51.2 s in pH 7.1,8.7
same,"current remaining during pH 7.1-induced desensitization, normalized to pre-pH 7.1 pH 6.0 peak, mean",[3]; 102.4 s in pH 7.1,4.9
same,"current remaining during pH 7.1-induced desensitization, normalized to pre-pH 7.1 pH 6.0 peak, mean",[3]; 204.8 s in pH 7.1,3.1
same,time constant of development of pH 7.1-induced desensitization,"[3]; single exponential, pH 6.0 test pulses",15.1 s and 15.1 ± 1.3 s
same,pH50 of steady-state desensitization,[4]; 0.1 µM,7.30 ± 0.03
same,pH50 of steady-state desensitization,[4]; 1 µM,7.27 ± 0.01
same,pH50 of steady-state desensitization,[4]; 10 µM,7.26 ± 0.01
same,"steady-state desensitization, current % of conditioning pH 8.2, mean","[4]; conditioning pH 6.8, 100 nM",0.13%
same,"steady-state desensitization, current % of conditioning pH 8.2, mean","[4]; conditioning pH 6.8, 1 uM",0.0205%
same,"steady-state desensitization, current % of conditioning pH 8.2, mean","[4]; conditioning pH 6.8, 10 uM",-0.0952%
same,"steady-state desensitization, current % of conditioning pH 8.2, mean","[4]; conditioning pH 7.1, 100 nM",1.6%
same,"steady-state desensitization, current % of conditioning pH 8.2, mean","[4]; conditioning pH 7.1, 1 uM",9.0%
same,"steady-state desensitization, current % of conditioning pH 8.2, mean","[4]; conditioning pH 7.1, 10 uM",10.8%
same,"steady-state desensitization, current % of conditioning pH 8.2, mean","[4]; conditioning pH 7.4, 100 nM",88.8%
same,"steady-state desensitization, current % of conditioning pH 8.2, mean","[4]; conditioning pH 7.4, 1 uM",84.6%
same,"steady-state desensitization, current % of conditioning pH 8.2, mean","[4]; conditioning pH 7.4, 10 uM",85.5%
same,"steady-state desensitization, current % of conditioning pH 8.2, mean","[4]; conditioning pH 7.8, 100 nM",98.6%
same,"steady-state desensitization, current % of conditioning pH 8.2, mean","[4]; conditioning pH 7.8, 1 uM",95.5%
same,"steady-state desensitization, current % of conditioning pH 8.2, mean","[4]; conditioning pH 7.8, 10 uM",95.9%
same,"steady-state desensitization, current % of conditioning pH 8.2, mean","[4]; conditioning pH 8.2, 100 nM",100%
same,"steady-state desensitization, current % of conditioning pH 8.2, mean","[4]; conditioning pH 8.2, 1 uM",100%
same,"steady-state desensitization, current % of conditioning pH 8.2, mean","[4]; conditioning pH 8.2, 10 uM",100%
